Among the test systems are DLD-1 colon; DMS 114 small cell lung; EKVX NSCLC; KM20L2 colon; M19-MEL melanoma; NCI-H23 lung; OVCAR-3 ovarian; RXF 393 renal; SNB-75 CNS; U251 CNS; UACC-62 melanoma; HOP-18 NSCLC; NCI/ADR-RES ovarian.
Test in all cases: NCI tumour cell line growth inhibition, 48 h

Molecules are shown by their SMILES.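 Results reflect a 48-hour exposure of cells in 96-well plates to compound at five concentrations. Here, GI50 denotes the concentration required for 50% inhibition of growth. TGI: total growth inhibition.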 Bounds are passed on as bounds.

As for `c1coc(CNc2ncnc3[nH]ncc23)c1`, the TGI in the experiment on DLD-1 colon, in the experiment with DMS 114 small cell lung, in the experiment with EKVX NSCLC, with KM20L2 colon, in the experiment with M19-MEL melanoma and with NCI-H23 lung was over 100 µM throughout. Moreover, the TGI in the experiment on OVCAR-3 ovarian, in the experiment with RXF 393 renal, in the experiment on SNB-75 CNS, in the experiment with U251 CNS and in the experiment on UACC-62 melanoma was over 100 µM in each case.
Regarding `Cc1cc(C)n(-c2nsc3ccccc23)n1`, the TGI with DMS 114 small cell lung, in the experiment with EKVX NSCLC, in the experiment on HOP-18 NSCLC, in the experiment with KM20L2 colon, with M19-MEL melanoma and in the experiment on NCI-H23 lung was over 100 µM in each case. Further, the TGI was over 100 µM with OVCAR-3 ovarian; over 100 µM in the experiment with RXF 393 renal; 98.3 µM with SNB-75 CNS; over 100 µM in the experiment with U251 CNS; over 100 µM in the experiment on UACC-62 melanoma.
Take `Cc1ccc2c(c1)C(=O)N(N(C)C)CC(=O)N2`: the TGI with DLD-1 colon, in the experiment with DMS 114 small cell lung, in the experiment on EKVX NSCLC, with HOP-18 NSCLC, in the experiment with M19-MEL melanoma and with NCI-H23 lung was over 100 µM throughout. Moreover, the TGI in the experiment with OVCAR-3 ovarian, with SNB-75 CNS, in the experiment with U251 CNS and in the experiment with UACC-62 melanoma was over 100 µM each time.
As for `CC(=O)c1ccc2c(c1)c1c(C)c3c[n+](C)ccc3c(C)c1n2C`, the TGI is over 100 µM in the experiment with DLD-1 colon; 25.6 µM in the experiment on DMS 114 small cell lung; over 100 µM in the experiment with EKVX NSCLC; 75.9 µM in the experiment on HOP-18 NSCLC; over 100 µM in the experiment on KM20L2 colon; 23.7 µM with M19-MEL melanoma. Moreover, the TGI was over 100 µM in the experiment on NCI/ADR-RES ovarian; over 65.6 µM in the experiment with OVCAR-3 ovarian; 42.8 µM with RXF 393 renal; 57.1 µM in the experiment on SNB-75 CNS; 11.9 µM with U251 CNS; 8.23 µM with UACC-62 melanoma.
For the compound `CSc1nc(NC2OCC(O)C(O)C2O)c(N)c(=O)[nH]1` (stereo unspecified), the TGI in the experiment on DLD-1 colon, with DMS 114 small cell lung, in the experiment with EKVX NSCLC, in the experiment with HOP-18 NSCLC, in the experiment on KM20L2 colon and with M19-MEL melanoma was over 100 µM throughout. Besides, the TGI in the experiment on NCI-H23 lung, in the experiment with NCI/ADR-RES ovarian, with OVCAR-3 ovarian, with RXF 393 renal, in the experiment with SNB-75 CNS and in the experiment with U251 CNS was over 100 µM in each case. For the same compound, the TGI with UACC-62 melanoma was over 100 µM.
Take `Fc1ccc(C2CC(c3cccc(Nc4ccncc4)c3)=NN2c2ccc(Cl)cc2)cc1` (stereo unspecified): the GI50 in the experiment on EKVX NSCLC was 2.11 µM; with NCI-H23 lung it was 1.84 µM; in the experiment with NCI/ADR-RES ovarian, 1.82 µM; in the experiment on OVCAR-3 ovarian it was 1.62 µM; in the experiment on RXF 393 renal, 1.63 µM; with SNB-75 CNS it was 1.25 µM. Besides, the GI50 in the experiment with UACC-62 melanoma is 1.73 µM. Besides, the TGI was determined as 6.33 µM in the experiment with EKVX NSCLC; 3.62 µM in the experiment with NCI-H23 lung; 3.48 µM with NCI/ADR-RES ovarian; 3.07 µM with OVCAR-3 ovarian; 3 µM in the experiment with RXF 393 renal; 2.8 µM in the experiment on SNB-75 CNS. The compound also gave a TGI in the experiment with UACC-62 melanoma of 3.19 µM.
In the case of `N#CN=[N+]([O-])c1ccc(C(=O)O)cc1`, the TGI with EKVX NSCLC is 35.8 µM; with NCI-H23 lung it was 33.7 µM; with NCI/ADR-RES ovarian it was 39.9 µM; in the experiment with OVCAR-3 ovarian, 29.7 µM; in the experiment with RXF 393 renal it was 30.1 µM; with SNB-75 CNS, 38.9 µM. Besides, the TGI in the experiment with U251 CNS worked out at 33 µM; with UACC-62 melanoma it was 31.4 µM.
`Brc1ccc(C2CC(c3cccc4ccccc34)=Nc3ccccc3S2)cc1` (stereo unspecified): the TGI in the experiment with DLD-1 colon, with EKVX NSCLC, in the experiment with KM20L2 colon, in the experiment with M19-MEL melanoma, in the experiment on NCI-H23 lung and in the experiment on RXF 393 renal was over 100 µM throughout. Moreover, the TGI in the experiment with SNB-75 CNS, in the experiment with U251 CNS and in the experiment with UACC-62 melanoma was over 100 µM in each case.
As for `Cc1cc2c(cc1C)OC(=O)CC2`, the TGI with EKVX NSCLC, in the experiment on NCI-H23 lung, with NCI/ADR-RES ovarian, in the experiment with OVCAR-3 ovarian, in the experiment on RXF 393 renal and with SNB-75 CNS was over 100 µM throughout. Besides, the TGI in the experiment with U251 CNS and in the experiment on UACC-62 melanoma was over 100 µM each time.

The record behind these values is PubChem BioAssay (NCI).
